The term ED50 denotes the dose that gives a 50% effect, or the effect in half of the subjects.

For one data set, the system named is isolated smooth muscle preparations. The experiment in a line: Smooth muscle-relaxing activity on isolated smooth muscle preparations.
Details: not given
From the text: Additionally, anti-histamine, anti-acetylcholine, anti-serotonin and smooth muscle-relaxing activities of the compounds under test were examined on isolated smooth muscle preparations
For the compound `Cc1ccc(C(=O)C(C)CN2CCCCC2)cc1.Cl` (stereo not shown) [Compound for control, 2,4'-dimethyl-3-piperidino-propiophenone hydrochloride, reference compound], the “smooth muscle-relaxant activity (in words)” value is “weak”.
The same measure, in the same setting: to `CCCc1ccc(C(=O)C(C)CN2CCCCC2)cc1.Cl` (stereo not shown) [Compound B, 4'-n-propyl-2-methyl-3-piperidino-propiophenone hydrochloride] belongs “strong”.
Still for that read-out and setting: the entry for `CCc1ccc(C(=O)C(C)CN2CCCCC2)cc1.Cl` (stereo not shown) [Compound A, 4'-ethyl-2-methyl-3-piperidino-propiophenone hydrochloride] is “strong”; for `CC(CN1CCCCC1)C(=O)c1ccc(C(C)C)cc1.Cl` (stereo not shown) [Compound C, 4'-isopropyl-2-methyl-3-piperidino-propiophenone hydrochloride] it is “strong”.

The subject of the next data set is mice. Description: Acute toxicity (24-hour mortality). Type of data set: in vivo. The following applies: oral, from Table 1. As for the experimental part: (§1) Male d,d-strain mice weighing 18 to 22 grs. were used for the experiments.
(§2) Groups of each 10 mice were treated orally and intraperitoneally with a wide range of doses of the above-mentioned compounds or saline.
The mortality ensued during 24 hours after the oral administration was recorded to determine acute toxicity of the compound under test on the mice.
As to `CCCc1ccc(C(=O)C(C)CN2CCCCC2)cc1.Cl` (stereo not shown) [Compound B, 4'-n-propyl-2-methyl-3-piperidino-propiophenone hydrochloride], the “acute toxicity compared with Compound under control (in words)” value is listed as “almost equivalent”.
Still for that read-out and setting: the entry for `CCc1ccc(C(=O)C(C)CN2CCCCC2)cc1.Cl` (stereo not shown) [Compound A, 4'-ethyl-2-methyl-3-piperidino-propiophenone hydrochloride] is “slightly stronger”.

Another data set has as its system motor function and maintenance of righting reflex. Description: animal or person. Type of data set: in vivo, male d,d-strain mice. As to conditions: Mus musculus, po, 1 h, read-out: Motor Ataxia, ED50. As for the experimental part: as §1, §2
The numerals given in the following Table 1 indicate ED50 values (in mg/kg) which were calculated 60 minutes after the oral administration of the compounds under test.
As to `Cc1ccc(C(=O)C(C)CN2CCCCC2)cc1.Cl` (stereo not shown) [Compound for control, 2,4'-dimethyl-3-piperidino-propiophenone hydrochloride, reference compound], the ED50 stood at 800 mg/kg.
For `CCCc1ccc(C(=O)C(C)CN2CCCCC2)cc1.Cl` (stereo not shown) [Compound B, 4'-n-propyl-2-methyl-3-piperidino-propiophenone hydrochloride], the ED50 came to 800 mg/kg.
Same read-out and setting: to `CCc1ccc(C(=O)C(C)CN2CCCCC2)cc1.Cl` (stereo not shown) [Compound A, 4'-ethyl-2-methyl-3-piperidino-propiophenone hydrochloride] belongs 640 mg/kg; to `CC(CN1CCCCC1)C(=O)c1ccc(C(C)C)cc1.Cl` (stereo not shown) [Compound C, 4'-isopropyl-2-methyl-3-piperidino-propiophenone hydrochloride], 84 mg/kg.

The values above are taken from patent US4181803A, “Propiophenone derivatives and preparation thereof” (Eisai Co., Ltd., priority 1973, dated 1980).
